Experimental data as given in patent US20140031389A1, “SCREENING METHODS AND PHARMACEUTICAL COMPOSITIONS FOR THE TREATMENT OF INFLAMMATORY BOWEL DISEASES” (INSERM (INSTITUT NATIONAL DE LA SANTE ET DE LA RECHERCHE …, priority 2011, published 2014).

How the values were obtained:
IL10/Nox1^dKO mice = assay: Salubrinal treatment of spontaneous colitis in IL10/Nox1^dKO mice; type: in vivo
Text: All SPF-reared C57B1/6-IL10/Nox1^dKO mice developed spontaneously colitis at 6/7 weeks and disease activity index (DAI) scores which became more severe with age, including diarrhea, high incidence of rectal bleeding, change in body and colon weights, and prolapses. None of WT and single-KO mice developed colitis during the time frame studied. […] We next measured epithelial permeability of FITC-dextran in segments of distal colon and indigenous bacterial translocation was identified in the spleen of 7 and 12-week-old mice. […] Consistent with previous findings in patients with UC^30,31, IL10/Nox1^dKO mice expressed almost 50% of microRNAs relevant in defining UC signature.
(§1) To assess the pathogenic role of goblet cells in UC, WT and Nox1^KO mice were subjected to oral administration of DSS or rectal administration of TNBS. […] IRE1beta and ATF6alpha branch signaling were extended in colonic epithelial cells as evidenced by the increased XBP-1 mRNA splicing, the induction of GRP78, GRP94, PDI at both mRNA and protein levels, and dilated cisternae and gross distortion of the ER in goblet cells. […] Consistent with reduced eIF2α phosphorylation, increased expression of PPP1R15A/GADD34, a stress-inducible protein that recruits the catalytic subunit of protein phosphatase 1 and promotes elF2alpha dephosphorylation, was detected in agreement with our previous data in humans^1. EIF2alpha phosphorylation is cytoprotective during ERS, because cells are sensitized to cell death when this pathway is genetically ablated^33 and protected when it is ectopically enforced^34. To test whether a selective pharmacological inhibitor of GADD34-mediated elF2alpha dephosphorylation may alleviate colitis, IL10/Nox1^dKO mice were treated with 1 mg/kg salubrinal^35 for up to three weeks.

[1] = test system: GADD34-mediated elF2alpha dephosphorylation; assay: elF2alpha phosphorylation and ER stress markers in colonic mucosa of salubrinal-treated IL10/Nox1^dKO mice; type: in vivo
Text: as §1

[2] = IL10/Nox1^dKO mice, 1 mg/kg salubrinal for up to three weeks
[3] = salubrinal-treated IL10/Nox1^dKO mice, 1 mg/kg for up to three weeks

O=C(/C=C/c1ccccc1)NC(NC(=S)Nc1cccc2cccnc12)C(Cl)(Cl)Cl (stereo not drawn) [salubrinal, 3-phenyl-N-[2,2,2-trichloro-1-[[(8-quinolinylamino)thioxomethyl]amino]ethyl]-2-propenamide]
histological colitis score throughout the colon (IL10/Nox1^dKO mice; [2]): strongly reduced | immune cell infiltration (IL10/Nox1^dKO mice; [2]): markedly prevented | mucosal architecture and goblet cells (IL10/Nox1^dKO mice; [2]): restored intact mucosal architecture with normal goblet cells | apoptosis of colonic mucosa (IL10/Nox1^dKO mice; IL10/Nox1^dKO mice, 1 mg/kg salubrinal for up to three weeks, anti-apoptotic activity on CHOP expression): protected colonic mucosa against apoptosis | amount of colonic and splenic Treg cells (IL10/Nox1^dKO mice; [3]): strongly decreased to baseline | levels of proinflammatory cytokines (IL10/Nox1^dKO mice; [3]): strongly decreased to baseline | elF2alpha phosphorylation ([1]; colonic mucosa, IL10/Nox1^dKO mice, 1 mg/kg salubrinal for up to three weeks): robust elF2alpha phosphorylation | Grp78/Bip and Grp94 expression [1, 3]: trend toward reduced | localisation of salubrinal-induced phosphorylation of elF2alpha [1, 3]: mainly detected in colonic epithelial cells
